This note sets out measurements from patent US20120083501A1, “COMPOUNDS FOR TREATING NEURODEGENERATIVE DISEASES” (priority 2010, published 2012).

This experiment deals with T1, BACE1 (Homo sapiens, UniProt P56817).
T1 construct: endogenous in cells; host or cells: HEK-293 cells stably transfected with wild type APP695
T1 sequence (P56817 46-501): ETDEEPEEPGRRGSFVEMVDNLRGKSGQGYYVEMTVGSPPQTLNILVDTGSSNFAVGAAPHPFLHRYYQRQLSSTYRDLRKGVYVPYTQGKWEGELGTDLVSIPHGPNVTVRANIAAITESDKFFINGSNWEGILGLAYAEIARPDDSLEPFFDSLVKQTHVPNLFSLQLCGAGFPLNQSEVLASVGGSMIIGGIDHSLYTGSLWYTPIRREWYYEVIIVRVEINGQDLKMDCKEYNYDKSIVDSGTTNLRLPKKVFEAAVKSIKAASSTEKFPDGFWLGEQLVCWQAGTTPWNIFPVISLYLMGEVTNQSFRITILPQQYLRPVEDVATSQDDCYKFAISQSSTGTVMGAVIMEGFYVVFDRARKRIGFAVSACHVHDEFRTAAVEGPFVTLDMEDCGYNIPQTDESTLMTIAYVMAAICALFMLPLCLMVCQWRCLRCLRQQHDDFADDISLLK
The experiment can be described thus: Cellular BACE1 Inhibition Assay (in vitro cellular Amyloidβ 1-40 production, HTRF immunoassay). It counts as cell-based. The following applies: inhibition of Amyloidβ 1-40 production; HEK-293 cells stably transfected with wild type APP695; 48 hours incubation; single assay or mean of multiple assays. As to the method:
The BACE inhibition properties of the compounds of the invention may be determined by the following in vitro cellular Amyloidβ 1-40 production assay.
Inhibition of Amyloidβ 1-40 production was determined by incubating cells with compound for 48 hours and quantifying the level of Amyloidβ 1-40 using an homogeneous time-resolved fluorescence (“HTRF”) immunoassay.
Materials and Methods: HEK-293 cells stably transfected with a DNA construct containing the coding sequence for the wild type APP695 sequence were grown in Dulbecco's Modified Eagle Medium (“DMEM”) supplemented with 10% fetal bovine serum, penicillin/streptomycin and 150 μg/mL G418. Cells were plated in 96-well plates at 35,000 cells/well and allowed to attach for 8-12 hours. Media was changed to DMEM supplemented with 10% fetal bovine serum, penicillin/streptomycin 15 minutes prior to compound addition. Diluted compounds were then added at a final concentration of 0.5% DMSO. After 48 hours, 4 μL of media from each well was added to a corresponding well of a 384 well plate (Perkin Elmer Cat#6008280) containing the HTRF reagents. HTRF reagents were obtained from the CisBio Amyloidβ 1-40 peptide assay kit (Cat# 62B40PEC) and were prepared as follows anti-peptide β (1-40)-Cryptate and anti-peptide β (1-40)-XL655 were stored in 2 plate aliquots at −80° C. Diluent and Reconstitution buffer were stored at 4° C. Aliquots of the two antibodies were diluted 1:100 with Reconstitution buffer, and this mixture was diluted 1:2 with Diluent. 12 μL of the reagent mixture was added to the required wells of the 384 well assay plate. The assay plate was incubated at 4° C. for 17 hours and then analyzed for fluorescence at 665 and 620 nm. The reported IC50 below may be from a single assay or the mean of multiple assays.
On the technique in general: TR-FRET usually uses a lanthanide donor and a delayed reading to cut background.
In the case of `CN1C(=O)C2(N=C1N)c1cc(-c3cncc(C(F)(F)F)c3)ccc1OC1CC(O)CCC12` (stereo not drawn) [Example 5, 2-amino-3′-hydroxy-1-methyl-7′-(5-(trifluoromethyl)pyridin-3-yl)-1′,2′,3′,4′,4a′,9a′-hexahydrospiro[imidazole-4,9′-xanthen]-5(1H)-one], the IC50 (usually the concentration needed to halve the response being measured) came to 6.1 nM.
Under `CN1C(=O)[C@]2(N=C1N)c1cc(-c3cccc(C#N)c3)ccc1O[C@]1(C)CCCO[C@H]12` (relative stereo) [Example 63, 3-((4S*,4a′R*,10a′S*)-2-amino-1,4a′-dimethyl-5-oxo-1,3′,4′,4a′,5,10a′-hexahydro-2′H-spiro[imidazole-4,10′-pyrano[3,2-b]chromen]-8′-yl)benzonitrile] stands 4.3 nM; under `CN1C(=O)C2(N=C1N)c1cc(-c3cncc(Cl)c3)ccc1O[C@H]1CCCC[C@@H]12` (relative stereo) [Example 15, trans 2-amino-7′-(5-chloropyridin-3-yl)-1-methyl-1′,2′,3′,4′,4a′,9a′-hexahydrospiro[imidazole-4,9′-xanthen]-5(1H)-one], 8.6 nM.
The figure for `CN1C(=O)C2(N=C1N)c1cc(-c3cccc(Cl)c3)ccc1OC1CC(O)CCC12` (stereo not drawn) [Example 2, 2-amino-7′-(3-chlorophenyl)-3′-hydroxy-1-methyl-1′,2′,3′,4′,4a′,9a′-hexahydrospiro[imidazole-4,9′-xanthen]-5(1H)-one] is 1.5 nM.
Regarding `CN1C(=O)C2(N=C1N)c1cc(-c3cncc(Cl)c3)ccc1OC1CC(O)CCC12` (stereo not drawn) [Example 3, 2-amino-7′-(5-chloropyridin-3-yl)-3′-hydroxy-1-methyl-1′,2′,3′,4′,4a′,9a′-hexahydrospiro[imidazole-4,9′-xanthen]-5(1H)-one], the IC50 stood at 1.3 nM. The IC50 values of the last two molecules are within 1.5-fold of each other.
Consider `CN1C(=O)C2(N=C1N)c1cc(-c3cc(F)cc(Cl)c3)ccc1OC1CC(O)CCC12` (stereo not drawn) [Example 1, 2-amino-7′-(3-chloro-5-fluorophenyl)-3′-hydroxy-1-methyl-1′,2′,3′,4′,4a′,9a′-hexahydro spiro[imidazole-4,9′-xanthen]-5(1H)-one], for which the 50% inhibitory concentration (IC50) was 2 nM. This IC50 is about 1.5-fold higher than that of the molecule before.
Molecule `CN1C(=O)C2(N=C1N)c1cc(-c3cncnc3)ccc1OC1CC(O)CCC12` (stereo not drawn) [Example 6, 2-amino-3′-hydroxy-1-methyl-7′-(pyrimidin-5-yl)-1′,2′,3′,4′,4a′,9a′-hexahydrospiro[imidazole-4,9′-xanthen]-5(1H)-one] gave an IC50 of 36.2 nM.
The figure for `CN1C(=O)C2(N=C1N)c1cc(-c3cc(F)cc(Cl)c3)ccc1O[C@H]1CCCC[C@H]12` (relative stereo) [Example 32, cis 2-amino-7′-(3-chloro-5-fluorophenyl)-1-methyl-1′,2′,3′,4′,4a′,9a′-hexahydrospiro[imidazole-4,9′-xanthen]-5(1H)-one] is 426 nM.
`CN1C(=O)C2(N=C1N)c1cc(-c3cccc(OC(F)F)c3)ccc1OC1CC(F)(F)CCC12` (stereo not drawn) [Example 36, 2-amino-7′-(3-(difluoromethoxy)phenyl)-3′,3′-difluoro-1-methyl-1′,2′,3′,4′,4a′,9a′-hexahydrospiro[imidazole-4,9′-xanthen]-5(1H)-one] yielded an IC50 of 221 nM.
For the molecule `CN1CC[C@@H]2Oc3ccc(-c4cc(F)cc(Cl)c4)cc3C3(N=C(N)N(C)C3=O)[C@@H]2C1` (stereo partly drawn) [Example 34, (4aS,10aS)-2′-amino-8-(3-chloro-5-fluorophenyl)-1′,2-dimethyl-1,2,3,4,4a,10a-hexahydrospiro[chromeno[3,2-c]pyridine-10,4′-imidazol]-5′(1′H)-one], it took 1670 nM to reach half-maximal inhibition (IC50).
`CCOC1CCC2C(C1)Oc1ccc(-c3cc(F)cc(Cl)c3)cc1C21N=C(N)N(C)C1=O` (stereo not drawn) [Example 28, 2-amino-7′-(3-chloro-5-fluorophenyl)-3′-ethoxy-1-methyl-l′,2′,3′,4′,4a′,9a′-hexahydrospiro[imidazole-4,9′-xanthen]-5(1H)-one] returned an IC50 of 51.2 nM.
Molecule `CN1C(=O)C2(N=C1N)c1cc(-c3cccnc3F)ccc1OC1CC(F)(F)CCC12` (stereo not drawn) [Example 19, 2-amino-3′,3′-difluoro-7′-(2-fluoropyridin-3-yl)-1-methyl-1′,2′,3′,4′,4a′,9a′-hexahydrospiro[imidazole-4,9′-xanthen]-5(1H)-one] showed an IC50 of 21.4 nM. Compared with the last molecule, the IC50 is about 2.4-fold lower.
As to `C[C@H]1OCCC2Oc3ccc(-c4cncc(Cl)c4)cc3[C@]3(N=C(N)N(C)C3=O)[C@@H]21` (mixture of isomers) [Example 50, (1′R*,4R*,4a′R*,10a′R*)-2-amino-8′45-chloropyridin-3-yl)-1,1′-dimethyl-3′,4′,4a′,10a'-tetrahydro-1′H-spiro[imidazole-4,10′-pyrano[4,3-b]chromen]-5(1H)-one], the IC50 came to 13.2 nM.
Take `CN1C(=O)C2(N=C1N)c1cc(-c3cc(F)cc(Cl)c3)ccc1OC1CC(=O)CCC12` (stereo not drawn) [Example 8, 2-amino-7′-(3-chloro-5-fluorophenyl)-1-methyl-1′,4′,4a′,9a′-tetrahydrospiro[imidazole-4,9′-xanthene]-3′,5(1H, 2′H)-dione]: the midpoint of inhibition, the IC50, lay at 5.5 nM.
`CN1C(=O)C2(N=C1N)c1cc(-c3cccnc3F)ccc1O[C@H]1CCCC[C@H]12` (relative stereo) [Example 14, cis 2-amino-7′-(2-fluoropyridin-3-yl)-1-methyl-1′,2′,3′,4′,4a′,9a′-hexahydrospiro[imidazole-4,9′-xanthen]-5(1H)-one] registered an IC50 of 48.3 nM.
`CN1C(=O)[C@]2(N=C1N)c1cc(-c3cccnc3F)ccc1O[C@@]1(C)CCCO[C@@H]12` (relative stereo) [Example 64, (4S*,4a′S*,10a′R*)-2-amino-8′-(2-fluoropyridin-3-yl)-1,4a′-dimethyl-3′,4′,4a′,10a′-tetrahydro-2′H-spiro[imidazole-4,10′-pyrano[3,2-b]chromen]-5(1H)-one] showed an IC50 of 1.8 nM.
Under `CN1C(=O)[C@]2(N=C1N)c1cc(-c3cncc(C#N)c3)ccc1O[C@H]1CCCO[C@@H]12` [Example 79, 5-((4S,4a′S,10a′R)-2-amino-1-methyl-5-oxo-1,3′,4′,4a′,5,10a′-hexahydro-2′H-spiro[imidazole-4,10′-pyrano[3,2-b]chromen]-8′-yl)nicotinonitrile] stands 4.3 nM.
`CN1C(=O)C2(N=C1N)c1cc(-c3cc(F)cc(Cl)c3)ccc1OC1CC(F)(F)CCC12` (stereo not drawn) [Example 20, 2-amino-7′-(3-chloro-5-fluorophenyl)-3′,3′-difluoro-1-methyl-1′,2′,3′,4′,4a′,9a′-hexahydrospiro[imidazole-4,9′-xanthen]-5(1H)-one] displayed an IC50 of 172 nM. Against the preceding molecule, the IC50 is about 40-fold higher.
The figure for `CN1C(=O)[C@]2(N=C1N)c1cc(-c3cncc(Cl)c3)ccc1O[C@H]1CCCO[C@@H]12` [Example 78, (4S,4a′S,10a′R)-2-amino-8′-(5-chloropyridin-3-yl)-1-methyl-3′,4′,4a′,10a′-tetrahydro-2′H-spiro[imidazole-4,10′-pyrano[3,2-b]chromen]-5(1H)-one] is 1.5 nM; for `CN1C(=O)[C@]2(N=C1N)c1cc(-c3cccnc3F)ccc1O[C@@]1(C)CCCO[C@H]12` (racemic) [Example 55, (4S*,4a′S*,10a′S*)-2-amino-8′-(2-fluoropyridin-3-yl)-1,4a′-dimethyl-3′,4′,4a′,10a′-tetrahydro-2′H-spiro[imidazole-4,10′-pyrano[3,2-b]chromen]-5 (1H)-one] it is 18.3 nM; for `CN1C(=O)C2(N=C1N)c1cc(-c3cncc(Cl)c3)ccc1C[C@H]1CCOC[C@@H]12` (stereo partly drawn) [Example 69, (4aS,10aS)-2′-amino-8-(5-chloropyridin-3-yl)-1′-methyl-1,3,4,4a,5,10a-hexahydrospiro[benzo[g]isochromene-10,4′-imidazol]-5′(1′H)-one] it is 0.8 nM.
